# Results taken from publication PMC7966987, “Insights into the catalytic properties of the mitochondrial rhomboid protease PARL” (The Journal of Biological Chemistry, 2021).
# Tests used:
# Assay type in all cases: biochemical
# PARLΔ77 [1] = molecular target: T1, PARLΔ77 (Homo sapiens, UniProt Q9H300); assay: IQ-peptide substrate cleavage kinetics, PARLΔ77 in POPE/POPC proteoliposomes lacking CL; conditions: pH 7.0, 37 °C, mean ± SEM, n=3
# T1 construct: GFP-hexahistidine (behind a TEV cleavage site) (C, cleaved yes); made in house; host or cells: Pichia pastoris
# T1 sequence (Q9H300 78-379): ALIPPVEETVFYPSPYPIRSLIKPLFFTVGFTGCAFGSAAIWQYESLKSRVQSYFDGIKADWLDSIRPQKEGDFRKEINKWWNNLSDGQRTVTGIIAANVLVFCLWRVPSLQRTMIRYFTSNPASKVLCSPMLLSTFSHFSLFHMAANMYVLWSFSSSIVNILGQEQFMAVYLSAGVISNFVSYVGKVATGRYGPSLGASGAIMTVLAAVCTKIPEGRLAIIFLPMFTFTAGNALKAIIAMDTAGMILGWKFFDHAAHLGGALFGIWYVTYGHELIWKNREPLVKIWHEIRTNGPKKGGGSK
# Description: To examine if CL influences PARL activity in a membrane environment, we prepared PL samples containing β-truncated PARL and conducted detailed kinetic analysis with the three IQ-peptide substrates (Fig. 3B). Two independent PL samples were generated: the first consisted only of POPC and POPE, while the second also contained CL. […] When CL was omitted from the PL, we observed two to tenfold slower turnover rates of cleavage for IQ-peptide substrates by β-truncated PARL (Fig. 3B and Table S7).
# (§1) Assays with FRET-PINK1^70–134 were conducted as previously described ([26]). For EDANS/Dabcyl 10-mer IQ peptides (PINK1, PGAM5, Smac/Diablo), lyophilized peptides were initially dissolved in DMSO to obtain a stock solution. The IQ peptide substrates in a concentration range of 0.1–70 μM were incubated with activity assay buffer (50 mM Tris-HCl pH 7.0, 150 mM NaCl, 10% glycerol, 0.1% DDM) in a 384-well black-bottomed plate at 37 °C for 30 min in a multiwell plate reader (SynergyMx, BioTek). For all concentrations of IQ peptide, the DMSO was kept constant at 5%. Following preincubation, PARL was added to a final concentration of 0.8 μM to initiate the cleavage reaction. Fluorescence readings were taken every 3 min over a 3 h time course at ƛex = 336 nm and ƛem = 490 nm. The initial velocity was determined from the fluorescence readings over the time course. For each substrate concentration, a no-enzyme control was subtracted to eliminate background fluorescence changes not related to substrate cleavage. Relative fluorescence units were converted to concentration (μM) by determining the maximum change in fluorescence observed for each substrate concentration when fully digested. GraphPad Prism software was used for Michaelis–Menten analysis of kinetic curves. All kinetic data were obtained using at least three biological replicates (different enzyme preparations) with technical duplicates for each experiment. For kinetic measurements in detergent with all three substrates, the activity assays were repeated at least five times. In addition, after each protease purification, the quality control of purified PARL was controlled by measuring its enzymatic activity. Minimum of three experimental replicates with two technical replicates were used for data analysis.
# (§2) E. coli polar lipids (Avanti), 400 μg in chloroform, were dried under nitrogen stream in a glass tube to yield a thin film of lipid. The tube was incubated overnight in a desiccator to completely remove all traces of solvent. In total, 50 μl of water and DDM detergent was added to the lipid film for resuspension at room temperature for 10 min, followed by the addition of purified PARL (400 μg) in 50 mM Tris-HCl, pH 8.0, 150 mM NaCl, 20% glycerol, 0.1% DDM, to yield the final weight ratio of 1 PARL:1 lipid:2 detergent. The detergent was slowly removed by the addition of SM2 Biobeads (Bio-Rad) while stirring on ice for 6 h to allow for the generation of proteoliposomes (PL); the process was controlled by the regimen of Biobead addition. To purify the PL, 50%:20% sucrose density gradient ultracentrifugation was used. A TAMRA probe (ThermoFisher) was used to determine the orientation of reconstituted PARL, which specifically and covalently labels serine residues of an enzymatically active serine protease. In total, 2 μM of TAMRA probe was added to PL samples and incubated for 1 h, allowing the TAMRA probe to label only the outward-facing accessible active sites. The same amount of PL, but with 1% DDM added to dissolve lipid vesicles incubated with 2 μM of TAMRA probe at the same conditions, was used as a benchmark for 100% accessible protein amount. The reaction was quenched with addition of SDS-containing sample buffer and the protein samples were visualized with SDS-PAGE followed by fluorescent gel scanning. The bands were quantified by densitometry analysis. […]
# human PARLΔ77 = assay: IQ-peptide substrate cleavage kinetics, PARLΔ77 in proteoliposomes; conditions: for fold change Km/kcat, PARLΔ77/PARLΔ55 / fold change kcat, PARLΔ77/PARLΔ55: PARL in PLs; for turnover / proteolysis with PARLΔ77 compared with PARLΔ55: in PL
# Description: To assess the activity of recombinant PARL toward known substrates in a lipid bilayer, full-length and β-truncated PARL were reconstituted in proteoliposomes (PLs) using Escherichia coli lipids that closely resemble the composition of the IMM ([31]). We determined that the EDANS/Dabcyl - FRET tags prevented incorporation of the substrates into PL; however, the substrate could still be cleaved since the active site is proposed to be near the lipid/water interface ([40], [41]) analogous to bacterial rhomboid proteases (Fig. 1). To calculate the specific activity of the protease, we quantified the fraction of PARL in the PLs with an outward facing active site using a membrane […] activity-based TAMRA-labeled fluorophosphonate probe ([42]). […] These values were used to calculate specific activity of the PARL protease. Next, we compared cleavage of three IQ-peptide substrates by reconstituted full-length mature PARLΔ55 and the β-truncated form, PARLΔ77 (Fig. 3, Tables S5 and S6).
# as §1
# as §2, with “sites.” for “sites. The same amount of PL, but with 1% DDM added to dissolve lipid vesicles incubated with 2 μM of TAMRA probe at the same conditions, was used as a benchmark for 100% accessible protein amount. The reaction was quenched with addition of SDS-containing sample buffer and the protein samples were visualized with SDS-PAGE followed by fluorescent gel scanning. The bands were quantified by densitometry analysis.”
# PARLΔ77 [2] = molecular target: T1, PARLΔ77; assay: as above; conditions: PARLΔ77 in PLs (E. coli polar lipids), 50 mM Tris-HCl pH 7.0, 150 mM NaCl, 10% glycerol, no DDM, 37 °C, mean ± SEM
substance,measurement,setting,value
"(DABCYL)-AVFLAFGLGL-Glu(EDANS) [IQ-PINK1^99–108, internally quenched DABCYL/EDANS peptide substrate based on PINK1 PARL cleavage site]",Km,PARLΔ77 [1],14 ± 5 µM
same,kcat (turnover rate),PARLΔ77 [1],0.0019 ± 0.00028 s⁻¹
same,kcat/KM (catalytic efficiency),PARLΔ77 [1],140 ± 56 M⁻¹ s⁻¹
same,"fold change Km/kcat, PARLΔ77/PARLΔ55",human PARLΔ77,5 fold
same,"fold change kcat, PARLΔ77/PARLΔ55",human PARLΔ77,3 fold
same,Km,PARLΔ77 [2],8 ± 1 µM
same,kcat (turnover rate),PARLΔ77 [2],0.00778 ± 0.00056 s⁻¹
same,kcat/KM (catalytic efficiency),PARLΔ77 [2],972 ± 170 M⁻¹ s⁻¹
"(DABCYL)-AVFLSAVAVG-Glu(EDANS) [IQ-PGAM5^20–29, internally quenched DABCYL/EDANS peptide substrate based on PGAM5 PARL cleavage site]",Km,PARLΔ77 [1],8 ± 3 µM
same,kcat (turnover rate),PARLΔ77 [1],0.0025 ± 0.00056 s⁻¹
same,kcat/KM (catalytic efficiency),PARLΔ77 [1],278 ± 83 M⁻¹ s⁻¹
same,"fold change Km/kcat, PARLΔ77/PARLΔ55",human PARLΔ77,7 fold
same,"fold change kcat, PARLΔ77/PARLΔ55",human PARLΔ77,4 fold
same,Km,PARLΔ77 [2],0.8 ± 0.2 µM
same,kcat (turnover rate),PARLΔ77 [2],0.00583 ± 0.00028 s⁻¹
same,kcat/KM (catalytic efficiency),PARLΔ77 [2]; listed as PGAM5,7220 ± 2200 M⁻¹ s⁻¹
same,kcat/KM (catalytic efficiency),PARLΔ77 [2]; listed as PGAM520-29,7220 ± 2200 M⁻¹ s⁻¹
"(DABCYL)-GVT LCAVPIA-Glu(EDANS) [IQ-Smac/Diablo^51–60, internally quenched DABCYL/EDANS peptide substrate based on Smac/Diablo PARL cleavage site]",Km,PARLΔ77 [1],3.8 ± 1 µM
same,kcat (turnover rate),PARLΔ77 [1],0.00133 ± 8.3e-05 s⁻¹
same,kcat/KM (catalytic efficiency),PARLΔ77 [1],333 ± 83 M⁻¹ s⁻¹
same,"fold change Km/kcat, PARLΔ77/PARLΔ55",human PARLΔ77,2 fold
same,"fold change kcat, PARLΔ77/PARLΔ55",human PARLΔ77,10 fold
same,turnover / proteolysis with PARLΔ77 compared with PARLΔ55,human PARLΔ77; listed as IQ-Smac/Diablo,increase in proteolysis
same,turnover / proteolysis with PARLΔ77 compared with PARLΔ55,human PARLΔ77; listed as Smac/Diablo,significantly enhanced
same,Km,PARLΔ77 [2],17 ± 4 µM
same,kcat/KM (catalytic efficiency),PARLΔ77 [2],944 ± 280 M⁻¹ s⁻¹
same,kcat (turnover rate),PARLΔ77 [2]; listed as Smac/Diablo,0.0161 ± 0.0019 s⁻¹
same,kcat (turnover rate),PARLΔ77 [2]; listed as Smac/Diablo51-60,0.0161 ± 0.0019 s⁻¹
